Data from US20250136634A1, “CAP ANALOG AND USE THEREOF” (SHANGHAI HONGENE BIOTECH CORPORATION, priority 2021, published 2025).

Each substance was assayed against T1, RIG-I (Homo sapiens, UniProt O95786) (assay: Binding ability of mRNA to RIG-I, RNA co-immunoprecipitation and qPCR in Hela cells). Details: Example 2; 2 ug mRNA/well, cells collected after 24 hours, relative to ^m7GpppApG cap, mean±SD.
T1 construct: endogenous in cells; host or cells: Hela cells (ATCC CCL-2)
T1 sequence (O95786 1-925): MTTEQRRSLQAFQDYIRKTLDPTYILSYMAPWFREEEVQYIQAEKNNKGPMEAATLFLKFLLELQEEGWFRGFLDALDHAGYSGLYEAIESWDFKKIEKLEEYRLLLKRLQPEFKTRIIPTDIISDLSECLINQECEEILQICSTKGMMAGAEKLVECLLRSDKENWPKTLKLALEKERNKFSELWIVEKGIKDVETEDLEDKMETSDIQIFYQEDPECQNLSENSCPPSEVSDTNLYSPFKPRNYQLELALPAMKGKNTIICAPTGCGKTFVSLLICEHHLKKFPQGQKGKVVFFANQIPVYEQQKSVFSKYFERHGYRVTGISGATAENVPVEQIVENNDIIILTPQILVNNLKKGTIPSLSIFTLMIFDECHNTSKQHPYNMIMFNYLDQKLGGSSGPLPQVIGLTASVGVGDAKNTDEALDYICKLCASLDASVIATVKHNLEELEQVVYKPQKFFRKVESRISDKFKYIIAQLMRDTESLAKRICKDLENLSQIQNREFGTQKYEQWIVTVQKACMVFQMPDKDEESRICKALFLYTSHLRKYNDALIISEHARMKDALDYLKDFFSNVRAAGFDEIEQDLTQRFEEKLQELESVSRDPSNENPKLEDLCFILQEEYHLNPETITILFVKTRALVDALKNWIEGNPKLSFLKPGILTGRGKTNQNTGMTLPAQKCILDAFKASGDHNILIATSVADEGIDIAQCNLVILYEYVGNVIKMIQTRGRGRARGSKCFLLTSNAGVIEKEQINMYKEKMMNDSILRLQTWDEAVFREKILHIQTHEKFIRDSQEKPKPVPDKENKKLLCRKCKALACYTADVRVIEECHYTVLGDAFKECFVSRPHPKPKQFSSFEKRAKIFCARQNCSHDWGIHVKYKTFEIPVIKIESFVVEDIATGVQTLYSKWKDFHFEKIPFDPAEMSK
Procedure: In this example, Hela cells (ATCC CCL-2) were transfected with luciferase mRNAs (Gaussia luciferase) comprising various initial cap structures (the initial cap nucleotide structures comprised are: ^m7GpppApG, ^m7GpppA2′Ome pG, ^m7G3′OmepppA2′O-ethylpG, ^m7G2′OmepppA2′O-ethylpG, ^m7G3′Omeppp A2′O-MOEpG, ^m7G2′O-mepppA2′O-MOEpG, ^m7Gppp(N6-methyladenine)2′O-MOEpG, ^m7G2′OmepppC2′O-ethylpC, ^m7G3′OmepppA2′O-MOEpU), and collected after 24 hours. The intracellular proteins RIG-I and IFIT1 were co-precipitated with the RNAs to which they bound by RNA co-immunoprecipation. The mRNAs were subjected to reverse transcription and real-time quantitative PCR, and the relative abundance of the mRNAs is proportional to their RIG-I and IFIT1 binding ability.
(§1) Hela cells were seeded at a cell density of 4×10^5/well in 6-well plates, and transfected with mRNA at 2 ug mRNA/well when the cell density reached about 80% using Lipofectamine MessengerMAX Transfection Reagent (Invitrogen) according to the transfection steps in the instruction. The cells were collected after 24 hours, and incubated at RT for 10 minutes after the addition of fixative solution. The reaction was then terminated by adding glycine at a suitable concentration, and the cells were collected by centrifugation. Appropriate amount of lysis solution was added to the cells. The mixture was incubated on ice for 30 minutes and centrifuged to collect supernatant. Appropriate amount of (2-4 ng) anti-RIG-I and IFIT1 antibodies (Abcam) were added to the supernatant, and the mixture was incubated overnight at 4° C. on a shaker, and then 20 ul Protein A/G magnetic beads were added and incubated for 2 hours at 4° C. on a shaker. The beads were rinsed using magnetic grate for 5 minutes and repeated 3 times. After that, 1 mL TRIzol reagent was added to the magnetic beads to extract RNAs which were then reverse transcribed into cDNAs. The expression of related genes was detected using real-time quantitative fluorescent PCR with B-actin as the internal reference. The detection of each gene was repeated 3 times, and the result of the expression of each gene is expressed as the relative value to the result of ^m7GpppApG cap.
The intracellular proteins RIG-I and IFIT1 were co-precipitated with the RNAs to which they bound by RNA co-immunoprecipitation. The mRNAs were subjected to reverse transcription and real-time quantitative PCR, and the relative abundance of the mRNAs is proportional to their RIG-I and IFIT1 binding ability.
as §1, with “(Invitrogen) as the transfection reagent” for “(Invitrogen)”, “was” for “was then”

| Substance | Relative binding ability to RIG |
| --- | --- |
| ^m7G2′OmepppA2′O-MOEpG | 0.69 ± 0.01 |
| ^m7G2′OmepppA2′O-ethylpG | 0.82 ± 0.03 |
| ^m7G2′OmepppC2′O-ethylpC | 0.93 ± 0.08 |
| ^m7G3′OmepppA2′O-MOEpG | 0.78 ± 0.07 |
| ^m7G3′OmepppA2′O-MOEpU | 1.12 ± 0.01 |
| ^m7G3′OmepppA2′O-ethylpG | 0.87 ± 0.11 |
| ^m7Gppp(N6-methyladenine)2′O-MOEpG | 0.77 ± 0.14 |
| ^m7GpppA2′Ome pG [reference compound] | 0.86 ± 0.06 |
| ^m7GpppApG [reference compound] | 1 ± 0.23 |

Same assay, conditions: Example 3 (IVT at 50° C.); 2 ug mRNA/well, cells collected after 24 hours, relative to ^m7GpppApG cap, mean±SD

| Substance | Relative binding ability to RIG |
| --- | --- |
| ^m7GAlpha-L-LNApppA2′O-ethyl pG | 0.52 ± 0.01 |
| ^m7GBeta-D-LNApppA2′O-MOEpG | 0.48 ± 0.02 |
| ^m7GpppA2′Ome pG [reference compound] | 0.88 ± 0.11 |
| ^m7GpppApG [reference compound] | 1 ± 0.28 |
